In paper PMC4802607, “Crystal structure and biochemical characterization of the recombinant ThBgl, a GH1 β-glucosidase overexpressed in Trichoderma harzianum under biomass degradation conditions” (Biotechnology for Biofuels, 2016):

Key:
[1] = target: T1, rThBgl (Trichoderma harzianum, UniProt A0A127SA86); assay: glucose tolerance of beta-glucosidase activity, […] glucose, triplicate; type: biochemical; conditions: read-out: % activity at 300 mM
T1 construct: gene bgl; full-length GH1 beta-glucosidase, bgl gene 1398 bp, pET28a, E. coli Rosetta; N-terminal His6-tag cut with thrombin for assays

[2] = substrate: O=[N+]([O-])c1ccc(O[C@@H]2O[C@H](CO)[C@@H](O)[C@H](O)[C@H]2O)cc1; assay: purified protein; conditions: 100 mM sodium phosphate pH 6.0, 40 °C, 0-10 mM substrate, 10 min

| Molecule | activity at 300000 µM [1] [%] | Km [2] [µM] |
| --- | --- | --- |
| OC[C@H]1OC(O)[C@H](O)[C@@H](O)[C@@H]1O (some centres unmarked) [glucose] | 50 | – |
| rThBgl (Trichoderma harzianum) (protein) MLPKDFQWGFATAAYQIEGAIDKDGRGPSIWDTFCAIPGKIADGTSGVTACDSYNRTAEDIALLKSLGAKSYRFSISWSRIIPKGGRDDPVNQLGIDHYAQFVDDLLEAGITPFITLFHWDLPEELHQRYGGLLNRTEFPLDFENYARVMFKALPKVRNWITFNEPLCSAIPGYGSGTFAPGRQSTTEPWIVGHNLLVAHGRAVKVYRDEFKDLNDGQIGIVLNGDFTYPWDSSDPLDREAAERRLEFFTAWYADPIYLGDYPASMRKQLGDRLPEFTPEEKAFVLGSNDFYGMNHYTSNYIRHRTSPATADDTVGNVDVLFYNKEGQCIGPETESSWLRPCPAGFRDFLVWISKRYNYPKIYVTENGTSLKGENDLPKEKILEDDFRVNYYNEYIRAMFTAATLDGVNVKGYFAWSLMDNFEWADGYVTRFGVTYVDYENGQQRFPKKSAKSLKPLFDELIAKE | – | 970 |
